From paper PMC10303384, “The Effect of Terbinafine and Its Ionic Salts on Certain Fungal Plant Pathogens” (Molecules, 2023)
Where two headings read alike, the source gives them in different places.

Columns and labels:
Valsa malicola (V. mali) = experiment: In vitro fungicidal activity, mycelial (hyphae) growth inhibition on PDA; type: cell-based
[1] = system: Botrytis cinerea (B. cinerea); experiment: as above; type: cell-based
[2] = system: Pyricularia oryzae (P. oryzae); experiment: microbe, parasite or virus in culture; type: cell-based; settings: for EC50: P. oryzae
[3] = system: Phomopsis capsici (P. capsica); experiment: In vitro fungicidal activity, mycelial (hyphae) growth inhibition on PDA; type: cell-based
[4] = system: Alternaria solani (A. solani); experiment: as above; type: cell-based
[5] = system: Rhizoctonia solani (R. solani); experiment: microbe, parasite or virus in culture; type: cell-based
[6] = system: Fusarium graminearum (F. graminearum); experiment: microbe, parasite or virus in culture; type: cell-based
[7] = system: Pythium aphanidermatum (P. aphanidermatum); experiment: In vitro fungicidal activity, mycelial (hyphae) growth inhibition on PDA; type: cell-based
[8] = Solubility classification in representative solvents (Vogel protocol); type: physicochemical; settings: thermodynamic from solid, 25 °C, test amount 0.1 g
Protocol: This investigation details how to determine the solubility of terbinafine and its salts, guided by the experimental protocol in Vogel’s Textbook of Practical Organic Chemistry. Based on the Snyder polarity index values of the representative solvents, each solvent was tested for its ability to dissolve the target analytes. The solubility data was classified into three categories based on the observed extent of dissolution. […] The experimental procedures were performed at 25 °C and under ambient pressure.

[9] = Solubility of saturated solutions by HPLC at 25 °C; type: physicochemical
Excerpt: The filtrate was then passed through a 0.22 μm nylon membrane filter and subjected to HPLC analysis. Based on Wang’s report about the chromatographic parameters, modifications to the mobile phase ratio were made. The replicability of the results was ensured by performing each measurement in triplicate.

[10] = Critical micelle concentration by electrical conductivity; settings: 25 °C
Protocol: The critical micelle concentrations (CMCs) of the TISs were measured using electrical conductivity at 25 °C, as shown in Figure S16.
The critical micelle concentrations (CMCs) of all the TISs were determined using an electrical conductivity meter (Leica Desktop Conductivity Meter DDSJ-308F, Shanghai Oustor Industrial Co., Ltd. Shanghai, China).

[11] = Surface tension of saturated aqueous solutions, Du Noüy ring method; settings: 25 °C
Protocol: This method involved adjusting the stage positioning of the solvent container such that a platinum ring could be immersed below the liquid interface or pulled through the meniscus. […] The maximum force was recorded as the surface tension of the solvent. To ensure accuracy, the platinum ring was thoroughly cleaned between each measurement through rinsing with double-distilled water and wiping it dry. The surface tension determination was performed in quadruplicate.

[12] = 50 mg/L, mean ± SD of three replicates

SMILES: CN(C/C=C/C#CC(C)(C)C)Cc1cccc2ccccc12.O=C(O)/C=C/C(=O)O [TIS 4, (E)-N,6,6-trimethyl-N-(naphthalen-1-ylmethyl)hept-2-en-4-yn-1-aminium (E)-3-carboxyacrylate]
- EC50 (Valsa malicola (V. mali)): 1.88 µg/mL
- Inhibition Rate at 50 mg/L (%) V. m (Valsa malicola (V. mali); 50 mg/L): 100 ± 0%
- EC50 (Valsa malicola (V. mali); read-out: EC50 (μmol/L)): 4.6 µmol/L
- Inhibition Rate at 50 mg/L (%) B. c ([1]; 50 mg/L): 100 ± 0%
- EC50 ([1]; Botrytis cinerea): 0.15 µg/mL
- EC50 ([1]; read-out: EC50 (μmol/L)): 0.36 µmol/L
- Inhibition Rate at 50 mg/L (%) P. o [2, 12]: 98.7 ± 0.54%
- EC50 ([2]; Pyricularia oryzae): 0.75 µg/mL
- EC50 ([2]; read-out: EC50 (μmol/L)): 1.84 µmol/L
- Inhibition Rate at 50 mg/L (%) P. c [3]: 47.64 ± 1.58%
- Inhibition Rate at 50 mg/L (%) A. s ([4]; 50 mg/L): 100 ± 0%
- EC50 ([4]; Alternaria solani): 0.11 µg/mL
- EC50 ([4]; read-out: EC50 (μmol/L)): 0.28 µmol/L
- Inhibition Rate at 50 mg/L (%) R. s ([5]; 50 mg/L): 85.82 ± 1.51%
- EC50 ([5]; Rhizoctonia solani): 2.3 µg/mL
- EC50 ([5]; read-out: EC50 (μmol/L)): 5.65 µmol/L
- Inhibition Rate at 50 mg/L (%) F. g [6, 12]: 100 ± 0%
- higher bioactivity compared to terbinafine ([6]; F. graminearum, from EC50): 16%
- EC50 ([6]; Fusarium graminearum, F. graminearum): 0.09 µg/mL
- EC50 ([6]; read-out: EC50 (μmol/L), F. graminearum): 0.21 µmol/L
- Inhibition Rate at 50 mg/L (%) P. a [7]: 65.23 ± 0.47%
- solubility ([8]; DMSO, organic solvent or mixture, Snyder polarity index 6.5, read-out: Solubility in DMSO): > 100 mg/mL
- solubility ([8]; acetone, organic solvent or mixture, Snyder polarity index 5.1, read-out: Solubility in Acetone): < 33.3 mg/mL
- solubility ([8]; acetonitrile, organic solvent or mixture, Snyder polarity index 6.2, read-out: Solubility in Acetonitrile): < 33.3 mg/mL
- solubility ([8]; chloroform, organic solvent or mixture, Snyder polarity index 4.1, read-out: Solubility in Chloroform): < 33.3 mg/mL
- solubility ([8]; ethyl acetate, organic solvent or mixture, Snyder polarity index 4.3, read-out: Solubility in Ethyl acetate): < 33.3 mg/mL
- solubility ([8]; isopropanol, organic solvent or mixture, read-out: Solubility in Isopropanol): < 33.3 mg/mL
- solubility ([8]; methanol, organic solvent or mixture, Snyder polarity index 6.6, read-out: Solubility in Methanol): < 33.3 mg/mL
- solubility ([8]; n-hexane, organic solvent or mixture, Snyder polarity index 0.0, read-out: Solubility in n-Hexane): < 33.3 mg/mL
- solubility ([8]; toluene, organic solvent or mixture, Snyder polarity index 2.3, read-out: Solubility in Toluene): < 33.3 mg/mL
- solubility ([8]; water, Snyder polarity index 9.0, read-out: Solubility in Water): < 33.3 mg/mL
- solubility at 15 min ([9]; acetone, organic solvent or mixture, thermodynamic from solid, Table S1, read-out: Solubility, Acetone): 2070 µM
- solubility at 15 min ([9]; acetonitrile, organic solvent or mixture, thermodynamic from solid, Table S1, read-out: Solubility, Acetonitrile): 301 µM
- solubility at 15 min ([9]; chloroform, organic solvent or mixture, thermodynamic from solid, Table S1, read-out: Solubility, Chloroform): 321 µM
- solubility at 15 min ([9]; ethyl acetate, organic solvent or mixture, thermodynamic from solid, Table S1, read-out: Solubility, Ethyl acetate): 880 µM
- solubility at 15 min ([9]; isopropanol, organic solvent or mixture, thermodynamic from solid, Table S1, read-out: Solubility, Isopropanol): 1920 µM
- solubility at 15 min ([9]; methanol, organic solvent or mixture, thermodynamic from solid, Table S1, read-out: Solubility, Methanol): 7750 µM
- solubility at 15 min ([9]; n-hexane, organic solvent or mixture, thermodynamic from solid, Table S1, read-out: Solubility, n-Hexane): 70.9 µM
- solubility at 15 min ([9]; toluene, organic solvent or mixture, thermodynamic from solid, Table S1, read-out: Solubility, Toluene): 0.261 µM
- solubility at 15 min ([9]; water, read-out: water solubility): 1920 µM
- solubility at 15 min ([9]; water, thermodynamic from solid, Table S1, read-out: Solubility, Water): 1920 µM
- critical micelle concentration (CMC) [10]: 0.31 mmol/L
- surface tension of the saturated aqueous solution [11]: 55.68 mN·m^−1
